Legend:
Assay type in all cases: in vivo
Septoria tritici = experiment: Test C: wheat leaf blotch, preventive spray on wheat seedlings, visual disease rating
Description: (§1) General protocol for preparing test suspensions for Tests A-H: The test compounds were first dissolved in acetone in an amount equal to 3% of the final volume and then suspended at the desired concentration (in ppm) in acetone and purified water (50/50 mix) containing 250 ppm of the surfactant Trem® 014 (polyhydric alcohol esters). The resulting test suspensions were then used in tests A-H. Spraying a 200 ppm test suspension to the point of run-off on the test plants was the equivalent of a rate of 500 g/ha.
The test suspension was sprayed to the point of run-off on wheat seedlings. The following day the seedlings were inoculated with a spore suspension of Septoria tritici (the causal agent of wheat leaf blotch) and incubated in a saturated atmosphere at 20° C. for 48 h, and moved to a growth chamber at 20° C. for 19 additional days, after which time disease ratings were visually made.
(§2) Results for Tests A-H are given in Table A. In the table, a rating of 100 indicates 100% disease control and a rating of 0 indicates no disease control (relative to the controls). A dash (-) indicates no test results. All results are for compounds tested at 200 ppm except where the compound number is followed by “*” which indicates the compound was tested at 40 ppm.

[1] = system: Erysiphe graminis f. sp. tritici; experiment: Test A: wheat powdery mildew, preventive spray on wheat seedlings, visual disease rating
Description: as §1
The test suspension was sprayed to the point of run-off on wheat seedlings. The following day the seedlings were inoculated with a spore dust of Erysiphe graminis f. sp. tritici (the causal agent of wheat powdery mildew) and incubated in a growth chamber at 20° C. for 8 days, after which time disease ratings were visually made.
as §2

Botrytis cinerea = experiment: Test F: tomato botrytis, preventive spray on tomato seedlings, visual disease rating
Description: as §1
The test suspension was sprayed to the point of run-off on tomato seedlings. The following day the seedlings were inoculated with a spore suspension of Botrytis cinerea (the causal agent of tomato botrytis) and incubated in saturated atmosphere at 20° C. for 48 h, and then moved to a growth chamber at 24° C. for 3 additional days, after which time disease ratings were visually made.
as §2

[2] = system: Puccinia recondite f. sp. tritici; experiment: Test B: wheat leaf rust, preventive spray on wheat seedlings, visual disease rating
Description: as §1
The test suspension was sprayed to the point of run-off on wheat seedlings. The following day the seedlings were inoculated with a spore suspension of Puccinia recondite f. sp. tritici (the causal agent of wheat leaf rust) and incubated in a saturated atmosphere at 20° C. for 24 h, and then moved to a growth chamber at 20° C. for 7 days, after which time disease ratings were visually made.
as §2

Septoria nodorum = experiment: Test D: wheat glume blotch, preventive spray on wheat seedlings, visual disease rating
Description: as §1
The test suspension was sprayed to the point of run-off on wheat seedlings. The following day the seedlings were inoculated with a spore suspension of Septoria nodorum (the causal agent of wheat glume blotch) and incubated in a saturated atmosphere at 20° C. for 48 h, and then moved to a growth chamber at 20° C. for 7 days, after which time disease ratings were visually made.
as §2

Alternaria solani = experiment: Test E: tomato early blight, preventive spray on tomato seedlings, visual disease rating
Description: as §1
The test suspension was sprayed to the point of run-off on tomato seedlings. The following day the seedlings were inoculated with a spore suspension of Alternaria solani (the causal agent of tomato early blight) and incubated in a saturated atmosphere at 27° C. for 48 h, and then moved to a growth chamber at 20° C. for 5 days, after which time disease ratings were visually made.
as §2

[3] = 200 ppm, 100 = 100% disease control, 0 = no control
[4] = 40 ppm (compound number followed by *)

| Structure (SMILES) | Test C rating (% disease control) (Septoria tritici; [3]) | Test A rating (% disease control) [1, 3] | Test F rating (% disease control) (Botrytis cinerea; [3]) | Test B rating (% disease control) [2, 3] | Test D rating (% disease control) (Septoria nodorum; [3]) | Test E rating (% disease control) (Alternaria solani; [3]) | Test C rating (% disease control) (Septoria tritici; [4]) | Test A rating (% disease control) [1, 4] | Test F rating (% disease control) (Botrytis cinerea; [4]) | Test B rating (% disease control) [2, 4] | Test D rating (% disease control) (Septoria nodorum; [4]) | Test E rating (% disease control) (Alternaria solani; [4]) | also measured |
| --- | --- | --- | --- | --- | --- | --- | --- | --- | --- | --- | --- | --- | --- |
| Cc1ncc(-c2ccccc2F)c(-c2cc(OC(F)F)cc(OC(F)F)c2)c1-c1ccc(F)cc1 [Compound 101] | 96% | 82% | 96% | 89% | 0% | 0% |  |  |  |  |  |  |  |
| COc1cc(OC)cc(-c2c(C3CCCC3)cnc(C)c2-c2c(F)cccc2F)c1 [Compound 67] |  |  |  |  |  |  | 95% | 100% | 99% | 100% | 0% | 99% |  |
| COc1cc(OC)cc(-c2c(Cn3cccn3)cnc(C)c2-c2c(F)cc(F)cc2F)c1 [Compound 97] | 95% | 100% | 99% | 100% | 100% | 100% |  |  |  |  |  |  |  |
| COc1ccc(-c2c(C)ncc(C(C)(C)O)c2-c2cc(OC)cc(OC)c2)cc1 [Compound 62] | 94% | 80% | 95% | 100% | 73% | 100% |  |  |  |  |  |  |  |
| COc1cc(OC)cc(-c2c(CO)cnc(C)c2-c2c(F)cc(F)cc2F)c1 [Compound 96, 4-(3,5-dimethoxyphenyl)-6-methyl-5-(2,4,6-trifluorophenyl)-3-pyridinemethanol] |  |  |  |  |  |  |  |  |  |  |  |  | pest or weed control at 200 ppm (Septoria tritici; Zymoseptoria tritici, 504 h, 200 ppm, 100 = 100% disease control, 0 = no control): 94%; pest or weed control at 200 ppm ([1]; Blumeria graminis, 192 h, 200 ppm, 100 = 100% disease control, 0 = no control): 98%; pest or weed control at 200 ppm (Botrytis cinerea; Botrytis cinerea, 120 h, 200 ppm, 100 = 100% disease control, 0 = no control): 98%; pest or weed control at 200 ppm ([2]; 192 h, 200 ppm, 100 = 100% disease control, 0 = no control): 96%; pest or weed control at 200 ppm (Septoria nodorum; Parastagonospora nodorum, 216 h, 200 ppm, 100 = 100% disease control, 0 = no control): 0%; pest or weed control at 200 ppm (Alternaria solani; Alternaria solani, 168 h, 200 ppm, 100 = 100% disease control, 0 = no control): 99% |
| COc1cc(OC)cc(-c2c(C(C)=NO)cnc(C)c2-c2c(F)cc(F)cc2F)c1 (single isomer, unassigned) [Compound 114] |  |  |  |  |  |  | 99% | 89% | 99% | 99% | 69% | 94% |  |
| CCOC(=O)c1cnc(C)c(-c2c(F)cc(OC)cc2F)c1-c1cc(OC)cc(OC)c1 [Compound 70] | 93% | 94% | 97% | 95% | 0% | 79% |  |  |  |  |  |  |  |
| CCC(O)c1cnc(C)c(-c2c(F)ccc(OC)c2F)c1-c1cc(OC)cc(OC)c1 (stereo not drawn) [Compound 115] |  |  |  |  |  |  | 98% | 93% | 98% | 96% | 0% | 99% |  |
| COc1cc(OC)cc(-c2c(C=O)cnc(C)c2-c2c(F)ccc(OC)c2F)c1 [Compound 113] |  |  |  |  |  |  | 76% | 0% | 79% | 89% | 0% | 9% |  |
| COc1cc(OC)cc(-c2c(Cn3cncn3)cnc(C)c2-c2c(F)cc(F)cc2F)c1 [Compound 104] | 98% | 100% | 99% | 100% | 99% | 100% |  |  |  |  |  |  |  |
| COc1cc(OC)cc(-c2c(C(C)C)cnc(C)c2-c2c(F)cc(OC)cc2F)c1 [Compound 75] |  |  |  |  |  |  | 96% | 99% | 99% | 100% | 99% | 100% |  |
| CCC(C)c1cnc(C)c(-c2c(F)cc(F)cc2F)c1-c1cc(OC)cc(OC)c1 (stereo not drawn) [Compound 73] |  |  |  |  |  |  | 94% | 100% | 99% | 100% | 0% | 91% |  |
| Cc1ncc(-c2ccccc2F)c(-c2cc(O)cc(O)c2)c1-c1ccc(F)cc1 [Compound 100] | 76% | 76% | 100% | 89% | 0% | 0% |  |  |  |  |  |  |  |
| COc1cc(OC)cc(-c2c(C3CCSCC3)cnc(C)c2-c2ccc(F)cc2)c1 [Compound 84] |  |  |  |  |  |  | 96% | 96% | 49% | 98% | 0% | 0% |  |
| COc1ccc(-c2c(C)ncc(C(C)C)c2-c2cc(OC)cc(OC)c2)cc1 [Compound 65] | 96% | 80% | 99% | 98% | 0% | 100% |  |  |  |  |  |  |  |
| COc1cc(OC)c(Cl)c(-c2c(-c3ccccc3F)cnc(C)c2-c2c(F)cc(F)cc2F)c1Cl [Compound 136] |  |  |  |  |  |  | 40% | 0% | 48% | 74% | 0% | 0% |  |
| COc1cc(OC)cc(-c2c(C(C)(C)OC(C)=O)cnc(C)c2-c2c(F)cc(F)cc2F)c1 [Compound 102] | 97% | 98% | 98% | 92% | 0% | 91% |  |  |  |  |  |  |  |
| COc1cc(OC)cc(-c2c(C(C)(C)O)cnc(C)c2-c2c(F)ccc(F)c2F)c1 [Compound 69] | 94% | 99% | 91% | 100% | 86% | 100% |  |  |  |  |  |  |  |
| COc1ccc(-c2c(C)ncc(C(C)(O)CO)c2-c2cc(OC)cc(OC)c2)cc1 (single isomer, unassigned) [Compound 83] | 95% | 95% | 54% | 99% | 0% | 99% |  |  |  |  |  |  |  |
| COc1cc(OC)cc(-c2c(-c3cccs3)cnc(C)c2-c2c(F)cc(F)cc2F)c1 [Compound 132] |  |  |  |  |  |  | 99% | 90% | 99% | 99% | 97% | 93% |  |
| CCC(C)c1cnc(C)c(-c2ccc(F)cc2)c1-c1cc(OC)cc(OC)c1 (stereo not drawn) [Compound 63] | 79% | 78% | 97% | 96% | 0% | 74% |  |  |  |  |  |  |  |
